# Laboratory results taken from patent publication US6936270B2, “Device and method for treating conditions of a joint” (Control Delivery Systems, Inc., priority 2000, dated 2005).
# Like-named read-outs stand apart in the source and are kept apart here.
# Experiment: Fluocinolone acetonide concentration in dog plasma after bilateral intraarticular implants (twelve month toxicity study in beagle dogs)
# Format: in vivo, Canis familiaris
# Details: other: bilateral intraarticular implants (knee joints)
# Protocol: Devices were administered once via bilateral intraarticular implants. The day of surgical implantation was Day 1. The devices were made as follows. Fluocinolone acetonide, USP, was compressed into 1.5 mm diameter tablets using standard pharmaceutical methods. The tablets were placed into preformed cups made from silicone elastomer. Cup size was dependent on dosage form. These cups were attached to […] (PVA) suture tabs. For the 2 mg implants, the surface of the tablet not coated with silicone was attached to a suture tab with PVA solution. For the 6 mg implant, a side of the silicone cup was attached perpendicular to the suture tab. Finally, the assemblies were dip coated with PVA. The implants were then cured at 135° C. for 5 hours and placed within the primary package. The product in the primary package was placed in a self-adhesive pouch and sterilized using gamma irradiation. Surgery was performed on both knee joints of all animals. A lateral skin incision was made to expose the fascia lata overlying the vastus lateralis cranially and the biceps fernoris caudally. The joint was exposed through an incision in the lateral intermuscular septum to expose the femur by anterior retraction of the vastus lateralis and posterior retraction of the biceps femoris. Care was taken not to disrupt the tendon of origin of the long digital extensor as it originates from the lateral femoral condyle. The joint capsule was opened, the patella luxated medially, and the joint was held in full flexion. 2 mg devices were placed in the right leg and 18 mg implants were placed in the left leg. The implants were placed within the anterior intercondyloid fossa, immediately lateral to the origin of the posterior cruciate ligament. The bone may be slightly deepened at this location with a curette to accept the implant. The implant was sutured in place to the posterior cruciate ligament. The joint capsule was closed with 3/0 PDS in a simple interrupted fashion. The retinaculum and intermuscular septum were closed with 2/0 Vicryl in a continuous pattern. The fascia lata were closed with 2/0 PDS, and the subcutaneous tissues with 3/0 PDS, both in a simple continuous pattern. The skin was closed with 3/0 Vicryl in a subcuticular pattern. Blood was collected from a peripheral vessel. Blood volumes represent whole blood and are approximate amounts. The blood samples were processed for plasma, the plasma was extracted, and the plasma was placed immediately in a ≦−70°C. freezer until transferred for analysis.
smiles,measurement,setting,value
CC1(C)O[C@@H]2C[C@H]3[C@@H]4C[C@H](F)C5=CC(=O)C=C[C@]5(C)[C@@]4(F)[C@@H](O)C[C@]3(C)[C@]2(C(=O)CO)O1 [Fluocinolone Acetonide],concentration at 3 day,"Dog 1001, Day 3, read-out: Assayed Concentrations of Fluocinolone Acetonide in Dog Plasma Samples",1.89 ng/mL
same,concentration at 21 day,"Dog 1001, Day 21, read-out: Assayed Concentrations of Fluocinolone Acetonide in Dog Plasma Samples",0.57 ng/mL
same,concentration at 7 day,"Dog 3001, Day 7, read-out: Assayed Concentrations of Fluocinolone Acetonide in Dog Plasma Samples",16.9 ng/mL
same,concentration at 21 day,"Dog 3001, Day 21, read-out: Assayed Concentrations of Fluocinolone Acetonide in Dog Plasma Samples",4.92 ng/mL
